Experimental data reported in patent US9340577B2, “HLA binding motifs and peptides and their uses” (priority 1992, dated 2016).
Like-named read-outs stand apart in the source and are kept apart here. No end group written: not given here.

Columns and labels:
HLA-A*0201 (HLA-A2.1) = HLA-A*0201 (HLA-A2.1) (Homo sapiens, UniProt P04439, D140Y/D185E/D98H/E176V/E277Q/G131W/G231S/I119V/I121R/I166T/I218V/L300P/L318F/N151K/N90K/P208A/P217A/Q86G/Q94H/R138H/R169H/T345S); assay: biochemical; assay type: binding
HLA-A24 = assay type: binding, human
HLA-A1 (A*0101) = HLA-A1 (A*0101) (Homo sapiens, UniProt P04439, A114D/A174V/A182V/D101N/D185E/E176A/E190D/L180R/Q94H/R68K/S129P/T187R/V100A/V91M/W191G); assay: biochemical; assay type: binding
A*2902 [1] = target: T1, A*2902 (Homo sapiens, UniProt P04439, A270S/D101N/D185E/E176V/E277Q/E87Q/F33T/G231S/H175R/I121M/I218V/I322F/K168Q/L300P/L318F/M331R/P208A/P217A/Q86L/T323A/T345S/V100A/V358M); assay: biochemical; assay type: binding
A*3002 [2] = target: T2, A*3002 (Homo sapiens, UniProt P04439, D101N/D140H/D185E/E176R/F33S/G80R/H175R/K168Q/Q94H/R138E/R41S/V100E); assay: biochemical; assay type: binding
T2 sequence (P04439 whole entry, looked up, the tested form may be a part, stated change not applied): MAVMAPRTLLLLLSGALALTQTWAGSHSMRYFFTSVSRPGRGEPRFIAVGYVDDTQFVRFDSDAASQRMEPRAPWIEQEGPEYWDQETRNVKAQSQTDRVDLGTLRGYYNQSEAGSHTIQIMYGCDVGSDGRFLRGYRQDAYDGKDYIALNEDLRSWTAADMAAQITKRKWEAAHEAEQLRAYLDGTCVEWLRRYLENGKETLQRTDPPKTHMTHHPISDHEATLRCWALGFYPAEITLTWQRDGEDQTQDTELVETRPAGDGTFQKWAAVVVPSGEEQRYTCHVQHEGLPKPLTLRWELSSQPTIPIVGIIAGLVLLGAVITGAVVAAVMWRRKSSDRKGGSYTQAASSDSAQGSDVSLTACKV

HLA-A3.2 (A*0301) = HLA-A3.2 (A*0301) (Homo sapiens, UniProt P04439); assay: biochemical; assay type: binding
HLA-A11 (A*1101) = HLA-A11 (A*1101) (Homo sapiens, UniProt P04439, A114D/D185E/E176A/F33Y/L180Q/S129P/T187R); assay: biochemical; assay type: binding
A31 (A*3101) = A31 (A*3101) (Homo sapiens, UniProt P04439, A270S/D185E/E176V/E277Q/F33T/G231S/G80R/H175R/I121M/I218V/I322F/K168Q/L300P/L318F/M331R/P217A/Q94H/R138Q/T323A/T345S/T97I/V358M); assay: biochemical; assay type: binding
A*3301 = A*3301 (Homo sapiens, UniProt P04439, A270S/D185E/E176V/E277Q/E87N/F33T/G231S/H175R/I121M/I218V/I322F/K168Q/K210R/L300P/L318F/M331R/P217A/Q86R/Q94H/R138Q/T323A/T345S/T97I/V358M/Y195H); assay: biochemical; assay type: binding
A*6801 = A*6801 (Homo sapiens, UniProt P04439, A269V/D185E/E176V/E277Q/E87N/F33Y/G231S/I121M/I166T/I218V/L180W/L300P/L318F/N151K/P208A/P217A/Q86R/R169H/T345S); assay: biochemical; assay type: binding
A*2601 = A*2601 (Homo sapiens, UniProt P04439, A114D/A173T/A270S/D101N/D185E/E277Q/E87N/F33Y/G231S/I121R/I218V/K168Q/L180W/L300P/L318F/P208A/P217A/Q86R/Q94H/R138Q/S129P/T187R/T323A/T345S/V100A/V358M); assay: biochemical; assay type: binding
A*2902 [3] = target: T1, A*2902; assay: biochemical; assay type: binding; remark: listed apart in the source
A*3002 [4] = target: T2, A*3002; assay: biochemical; assay type: binding; remark: listed apart in the source

Substance | IC50 (HLA-A1 (A*0101)) | IC50 (A*2902 [1]) | IC50 (A*3002 [2]) | IC50 (A*2601) | IC50 (A*2902 [3]) | IC50 (A*3002 [4]) | further results
AAISRKMVEL |  |  |  |  |  |  | binding to HLA-A2.1 (column 3; no allele head shown for these rows) (HLA-A*0201 (HLA-A2.1)): 0; binding to HLA-A24 (column 6; no allele head shown for these rows) (HLA-A24): 0
AALSRKVAEL |  |  |  |  |  |  | binding to HLA-A24 (column 6; no allele head shown for these rows) (HLA-A24): 0
AATSSSSPL |  |  |  |  |  |  | binding to HLA-A2.1 (column 3; no allele head shown for these rows) (HLA-A*0201 (HLA-A2.1)): 0; binding to HLA-A24 (column 6; no allele head shown for these rows) (HLA-A24): <0.0002
AFTDLTIVY [Peptide 78.0348] | 31 nM | 36 nM | 71 nM |  |  |  | 
ALAETSYVK |  |  |  |  |  |  | binding to HLA-A2.1 (column 3; no allele head shown for these rows) (HLA-A*0201 (HLA-A2.1)): 0.0002; binding to HLA-A24 (column 6; no allele head shown for these rows) (HLA-A24): 0
ALGLVCVQAA |  |  |  |  |  |  | binding to HLA-A2.1 (column 3; no allele head shown for these rows) (HLA-A*0201 (HLA-A2.1)): 0.0002; binding to HLA-A24 (column 6; no allele head shown for these rows) (HLA-A24): 0
ATLERTEVY [Peptide 78.0252] | 656 nM | 557 nM | 26 nM |  |  |  | 
AYIDNVYKF [Peptide 979-01, reference compound] |  |  |  |  |  |  | apparent % of available receptor (active MHC) (HLA-A24): 8.3%; Kd (HLA-A24; read-out: KD from Scatchard experiments, A24): 136 nM; Kd (HLA-A24; read-out: apparent KD from cold inhibition experiments, A24): 30 nM
EALEAQQEAL |  |  |  |  |  |  | binding to HLA-A2.1 (column 3; no allele head shown for these rows) (HLA-A*0201 (HLA-A2.1)): 0; binding to HLA-A24 (column 6; no allele head shown for these rows) (HLA-A24): 0
ELDPVDLLCY [Peptide 78.0017] | 26 nM |  | 12700 nM |  |  |  | 
ESNSLKCLRY [Peptide 1580.26] | 359 nM | 7510 nM | 604 nM |  |  |  | 
EYRHYNYSVY [Peptide 78.0180] | > 20000 nM | 16000 nM | 253 nM |  |  |  | 
EYRHYQYSLY [Peptide 78.0183] | 2270 nM | 2370 nM | 130 nM |  |  |  | 
F185.01 (LYSACFWWL) [Peptide F185.01] |  |  |  |  |  |  | IC50 (HLA-A24; read-out: A*2402): 28 nM
FYSKVRKYRY [Peptide 78.0176] | > 20000 nM | 146 nM | 326 nM |  |  |  | 
GNEKTYFKY [Peptide 86.0160] | 2300 nM | 319 nM | 739 nM |  |  |  | 
ISEYRHYQY [Peptide 78.0254] | 46 nM | 853 nM | 81 nM |  |  |  | 
KAGLLIIVL |  |  |  |  |  |  | binding to HLA-A24 (column 6; no allele head shown for these rows) (HLA-A24): 0
KALKFYSKI [Peptide E6-72] |  |  |  |  |  |  | binding class for HLA-A24 (HLA-A24): high affinity (key: high affinity: >0.1; intermediate affinity: 0.1-0.01; low affinity: 0.01-0.001)
KFYSKISEY [Peptide 78.0363] | > 20000 nM | 1590 nM | 9.5 nM |  |  |  | 

Substance | IC50 (HLA-A1 (A*0101)) | IC50 (A*2902 [1]) | IC50 (A*3002 [2]) | IC50 (A*2601) | IC50 (A*2902 [3]) | IC50 (A*3002 [4]) | further results
KLNWASQIY [Peptide 1595.09] | 11300 nM |  |  | > 20000 nM | 108 nM | 2.9 nM | IC50 (HLA-A3.2 (A*0301)): 63 nM; IC50 (HLA-A11 (A*1101)): 950 nM; IC50 (A31 (A*3101)): > 20000 nM; IC50 (A*3301): > 20000 nM; IC50 (A*6801): > 20000 nM
KQNPDIVIY [Peptide 1595.10] | > 20000 nM |  |  | > 20000 nM | > 20000 nM | 7.4 nM | IC50 (HLA-A3.2 (A*0301)): 3800 nM; IC50 (A31 (A*3101)): 4550 nM; IC50 (A*3301): > 20000 nM; IC50 (A*6801): > 20000 nM
LFTDLRIVY [Peptide 78.0378] |  | 12 nM | 89 nM |  |  |  | 
LFYSKVRKY [Peptide 78.0384] | > 20000 nM | 201 nM | 35 nM |  |  |  | 
LKEYVLDLY [Peptide 78.0250] | > 20000 nM | 3310 nM | 76 nM |  |  |  | 
LSDISEYRHY [Peptide 1549.45] | 27 nM | 14500 nM |  |  |  |  | 
LTEITGYLY [Peptide 9012.0126] | 16 nM | 25 nM | 151 nM |  |  |  | 
LVFGIELMEV |  |  |  |  |  |  | binding to HLA-A24 (column 6; no allele head shown for these rows) (HLA-A24): 0
LYPEPTDLY [Peptide 78.0354] | > 20000 nM |  | 1470 nM |  |  |  | 
MLETLNNTEY [Peptide 1580.24] | 36 nM |  | 1120 nM |  |  |  | 
NTDILTVTY [Peptide 1593.17] | 22 nM |  | 2000 nM |  |  |  | 
QAEPDRAHY [Peptide 78.0244] | 3270 nM | > 20000 nM | 16 nM |  |  |  | 
QAEQATSNYY [Peptide 78.0022] |  | > 20000 nM | 1440 nM |  |  |  | 
RAHYNIVTF [Peptide E7-49] |  |  |  |  |  |  | binding class for HLA-A24 (HLA-A24): intermediate affinity (key: high affinity: >0.1; intermediate affinity: 0.1-0.01; low affinity: 0.01-0.001)
RFHNIGGRW [Peptide 78.0369] | > 20000 nM | 12200 nM | 13 nM |  |  |  | 
RFHNIMGRW [Peptide 78.0381] | > 20000 nM | > 20000 nM | 27 nM |  |  |  | 
RFHSIAGQY [Peptide 78.0376] | > 20000 nM |  | 1 nM |  |  |  | 
RTDSVILNVLY [Peptide 9012.0162] | 14 nM | 954 nM | 8.5 nM |  |  |  | 
SSDAALYWY [Peptide 1593.08] | 34 nM |  |  | > 20000 nM | 1970 nM | 799 nM | 
STDAALYWY [Peptide 1593.02] | 2.6 nM |  |  | 24 nM | 26 nM | 68 nM | 

Substance | IC50 (HLA-A1 (A*0101)) | IC50 (A*2902 [1]) | IC50 (A*3002 [2]) | IC50 (A*2601) | IC50 (A*2902 [3]) | IC50 (A*3002 [4]) | further results
STEWRLRRY [Peptide 9018.0019] | 52 nM |  |  | 320 nM | 271 nM | 6.6 nM | 
TWETWWTDY [Peptide 9015.0019] | > 20000 nM |  |  | 3300 nM | 137 nM | 6310 nM | 
VAELVHFLLL |  |  |  |  |  |  | binding to HLA-A24 (column 6; no allele head shown for these rows) (HLA-A24): 0.0018
VSDEWRLRRY [Peptide 9018.0016] | 62 nM |  |  | 4320 nM | 2580 nM | 47 nM | 
VSDRANGWFY [Peptide 9018.0012] | 4.3 nM |  |  | 191 nM | 932 nM | 18 nM | 
VSIEWRLRRY [Peptide 9015.0181] | 4630 nM |  |  | 363 nM | 2490 nM | 55 nM | 
VSIEWRQRRY [Peptide 9015.0182] | 7930 nM |  |  | 1990 nM | 13900 nM | 65 nM | 
VSRDAKGWFY [Peptide 9018.0014] | 14 nM |  |  | 64 nM | 17 nM | 3.4 nM | 
VSRRAKGWFY [Peptide 9015.0178] | 273 nM |  |  | > 20000 nM | 11900 nM | 40 nM | 
VTETLEEITGY [Peptide 9012.0178] | 20 nM | > 20000 nM | 11300 nM |  |  |  | 
VTIEWRLRRY [Peptide 9018.0015] | 19 nM |  |  | 33 nM | 123 nM | 3.5 nM | 
VTRRAKGWFY [Peptide 9018.0013] | 1.5 nM |  |  | 15 nM | 21 nM | 3.3 nM | 
VWDIVYIEY [Peptide 9018.0040] | 91 nM |  |  | 336 nM | 540 nM | 472 nM | 
WKSLVKHHMY [Peptide 9015.0177] | > 20000 nM |  |  | > 20000 nM | > 20000 nM | 148 nM | 
YSDREIIY [Peptide 9012.0096] | 93 nM | > 20000 nM |  |  |  |  | 
YSKVSEFRWY [Peptide 78.0009] | 539 nM | 4510 nM |  |  |  |  | 
YSRIRELRY [Peptide 78.0253] | 308 nM | 6280 nM |  |  |  |  | 
YTDGPGTRY [Peptide 9018.0002] | 0.39 nM |  |  | 28 nM | 65 nM | 63 nM | 
YTDGPGVRY [Peptide 9018.0003] | 2.1 nM |  |  | 152 nM | 39 nM | 45 nM | 
